“Also recorded” adds a separate entry of the source.
Experiments:
[1] = tested on: SARS-COV-2-infected hamsters; parameters: species or system golden Syrian hamsters (Mesocricetus auratus); conditions: hamster, in vivo
[2] = tested on: mice injected with SP RBD; parameters: species or system Balb/c mice; conditions: mouse, in vivo
C28/12 = experiment: Rescue effect of macitentan on SP RBD-induced oxidative stress and mitochondrial dynamics in chondrocytes (CellROX, MitoTracker); type: cell-based, human; conditions: C28/12 pre-treated with 10 μM Macitentan for 30 minutes, then SP RBD 10 μg/ml for 1 h
Protocol: Chondrocyte cell lines C28/12 (human), ATDC5 (mouse) and human umbilical vein endothelial cells (HUVEC) were received as gifts from Prof. Danny Chan from the University of Hong Kong, Prof. Limin Rong from Sun Yat-Sen University and Prof.
Mo Yang from the Hong Kong Polytechnic University respectively. Both chondrocyte cell lines were maintained in DMEM/F12 culture medium supplemented with 5% heat-inactivated FBS, 50 U ml^−1 penicillin and 50 μg ml-^1 streptomycin. HUVEC were cultured in endothelial cell medium with 1% endothelial cell growth supplement and 1% antibiotic solution (ScienCell).
To investigate the rescue effect of Macitentan on RBD-induced oxidative stress accumulation and change in mitochondrial dynamics, cells seeded on coverslips were pre-treated with 10 μM Macitentan for 30 minutes before adding RBD for an hour.
To evaluate cellular oxidative stress, CellROX® Deep Red Reagent solution (Invitrogen) was used according to the manufacturer's instructions. Positive signal was visualized by excitation/emission at 640/665 nm. For visualising mitochondrial morphology, we stained the cells using Mito Tracker® Red CMXRos (Invitrogen) with excitation/emission at 579/599 nm. Cells were then counterstained and mounted by ProLong® Gold antifade reagent with 4′, 6-diamidino-2-phenylindole (DAPI). All the images were captured using Leica TCS SPE Confocal microscope.

[3] = tested on: SARS-COV-2-infected hamsters; parameters: species or system golden Syrian hamsters (Mesocricetus auratus); conditions: hamster, in vivo; remark: listed apart in the source

For `CCCNS(=O)(=O)Nc1ncnc(OCCOc2ncc(Br)cn2)c1-c1ccc(Br)cc1` [macitentan], the “4HNE expression level in bone marrow cavity of subchondral bone (oxidative stress)” value [1] was “lowered vWF and 4HNE expression level”, the “BV/TV (micro-CT)” value [1] was “no significant difference” and the “amount of viral spike protein at local joint tissue (subchondral bone marrow cavity)” value [1] was “tended to lower the amount of viral spike protein”. For the same compound, the “area of the cysts at the osteochondral junction” value [1] was “effectively reducing the area of the cysts”, the articular surface roughness [1] was “No statistical significance” and the “collagen loss (Masson's trichrome staining)” value [1] was “prevented virus-induced collagen loss”. The “fibrin exudate at the osteochondral junction” value [1] was “decreasing the fibrin exudate”, the “number of SP7+ osteoblasts progenitors” value [1] was “without affecting the number of SP7^+ osteoblasts progenitors” and the “number of TRAP+ osteoclasts in subchondral bone” value [1] was “significantly lower number of TRAP^+ osteoclasts”. The “number of chondrocytes in articular cartilage” value [1] was “More chondrocytes were observed”, the “number of cytoplasmic HMGB1 cells in articular cartilage” value [1] was “decrease in the number of nuclear p16^INK4a and cytoplasmic HMGB1 cells” and the “number of nuclear p16INK4a cells in articular cartilage” value [1] was “decrease in the number of nuclear p16^INK4a”. The “subchondral BMD (micro-CT)” value [1] was “could restore subchondral BMD”, the “vWF expression level in bone marrow cavity of subchondral bone” value [1] was “lowered vWF and 4HNE expression level” and the “SP RBD-induced subchondral bone loss (micro-CT, proximal epiphysis of tibia)” value [2] was “rescue effect of macitentan on SP RBD-induced bone loss”. For the same compound, the “accumulation of senescent chondrocytes (p16INK4a, HMGB1) in articular cartilage” value [2] was “preventing accumulation of senescent chondrocytes”, the “proteoglycan in articular cartilage (Safranin O/fast green)” value [2] was “performed better in terms of preserving proteoglycan” and the “paw withdrawal threshold / nociceptive tolerance (von Frey filament test)” value ([2]; ip, 0.3 mg/kg) was “able to attain the same nociceptive tolerance as high dose after 12 days”. The “paw withdrawal threshold (von Frey filament test)” value ([2]; ip, 3 mg/kg) was “increase in paw withdrawal threshold after 5 days of treatment; also recorded: faster analgesic effect at the higher dose”, the “SP RBD-induced cellular oxidative stress (CellROX staining)” value (C28/12) was “effectively lowered SARS-COV-2 spike protein-induced increase in oxidative stress” and the “mitochondrial dynamics / morphology (MitoTracker staining)” value (C28/12) was “showed restoration of rod-like structures”. The “BMD in tibial epiphysis (micro-CT)” value [3] was “improvement in subchondral bone mass and microstructure; also recorded: significant increase in BMD and BV/TV”, the “BV/TV in tibial epiphysis (micro-CT)” value [3] was “improvement in subchondral bone mass and microstructure; also recorded: significant increase in BMD and BV/TV” and the “amount of viral spike protein retained (subchondral bone marrow cavity)” value [3] was “could reduce the amount of viral spike protein retained”. The articular cartilage structure [3] was “did not lead to further improvement in articular cartilage structurally”, the chondrocyte dropout [3] was “slight yet not significant improvement” and the cyst formation [3] was “slight yet not significant improvement”. For the same compound, the “expression level of vWF in bone marrow” value [3] was “could effectively lower the expression level of vWF”, the “number of SP7+ osteoblast progenitors” value [3] was “increased the number of SP7^+ osteoblast progenitors” and the “number of TRAP+ osteoclasts” value [3] was “without affecting the number of TRAP^+ osteoclasts”. The “number of senescent chondrocytes in articular cartilage (p16INK4a and HMGB1 staining)” value [3] was “effectively lower the number of senescent chondrocytes”, the “oxidative stress near vessels (4HNE staining)” value [3] was “reduction of oxidative stress near vessels” and the “trabecular number in tibial epiphysis (micro-CT)” value [3] was “improvement in subchondral bone mass and microstructure”. For the same compound, the “trabecular separation in tibial epiphysis (micro-CT)” value [3] was “improvement in subchondral bone mass and microstructure” and the “trabecular thickness in tibial epiphysis (micro-CT)” value [3] was “improvement in subchondral bone mass and microstructure”.
